# Data from patent US20190374509A1, “Methods of Using Metamizole for Treatment of Pyrexia in Equines” (Kindred Biosciences, Inc., priority 2018, published 2019).
# Where “and” joins values, the source holds several entries; their conditions need not be identical. Equal values may be shown once.
# Assays:
# [1] = test system: horses; assay: Pyrexia efficacy Study 2 (masked, randomized, placebo controlled, crossover, rectal temperature); type: in vivo; details: for Mean (standard deviation) temperature: 30 mg/kg IV single dose
# Protocol: Study 2: The masked, randomized, placebo controlled laboratory study was conducted at a clinical research organization in the United States. IACUC approval was obtained prior to the conduct of the study. Horses one year of age or older were comingled by the Investigator in order to facilitate transmission of respiratory infections. Horses were monitored by the study staff for elevation of rectal temperature. […] Unblinded dose administrators administered the study drug (Phase 1). A single dose of study drug was administered. Treatment was either dipyrone (30 mg/kg IV) or placebo (saline, matched volume, IV). Blinded personnel recorded the rectal temperature at 4 and 6 hours post-treatment administration. Twenty-four hours following Dose 1 horses were monitored for rectal temperature. Horses with rectal temperature≥102.0° F. were crossed over to the other treatment group. Unblinded dose administrators administered the study drug (Phase 2), and blinded personnel recorded the rectal temperature 4 and 6 hours post-treatment administration. […] Blinding was maintained until the completion of the statistical analysis.
# In both studies horses were assessed daily to determine overall safety. Medications that could have impacted the temperature or the underlying cause of the disease were not permitted in either study; however, horses in both studies were eligible for rescue at the discretion of the Investigator. Following completion of the study, the Investigator treated the horses with standard of care for the type, and severity, of clinical signs. Statistical analysis was performed with the Wilcoxon rank sum test (SAS®, SAS Institute, Cary N.C., version 9.4).
# [2] = test system: horses; assay: Margin of safety study, IV three times daily for 9 days: coagulation panel (prothrombin time, APTT, fibrinogen); type: in vivo; details: for Prothrombin Time LS Means: averaged over time and sex
# Protocol: A study was conducted to evaluate the margin of safety of metamizole when administered intravenously to horses for 9 days at doses of 0 mg/kg (0×), 30 mg/kg (1×), 60 mg/kg (2×), and 90 mg/kg (3×) of body weight three times daily (TID), every 8 hours±30 min.
# This was a prospective, blinded, randomized, placebo-controlled, parallel-group laboratory study in research horses. Thirty-two horses were enrolled in the study (Table 1).
# Treatment phase involved administration of the investigational drug or placebo. The investigational drug was a sterile injectable formulation of dipyrone (Zimeta™, Corden Pharma, Caponago, Italy) (500 mg/mL) in 100 mL glass bottles. The placebo was sterile injectable saline (Nova-Tech Inc, Grand Island, NE) (0.9% sodium chloride) in 500 mL plastic bottles labeled for veterinary use. Dipyrone treatment groups were 30 mg/kg (1×), 60 mg/kg (2×), and 90 mg/kg (3×). Placebo treatment group was saline administered at a volume to match the 3× dipyrone group (0×). The dose was calculated based on body weight and administered three times daily for nine consecutive days. Due to the large volume of injection at the higher dose groups, treatment was administered via indwelling intravenous (IV) catheters. Intravenous catheters were placed using standard techniques. Horses were sedated with xylazine (AnaSed® LA, VetOne, MWI, Boise, Id.) and the skin was desensitized with subcutaneous injection of lidocaine (VetOne, MWI, Boise, Id.). Intravenous catheters were replaced at the discretion of the study director and were maintained with heparinized saline flush prior to and following dose administration.
# Randomization occurred on Study Day −1. […] .
# For continuous endpoints with repeated post-treatment measurements (serum chemistry, coagulation, hematology, urinalysis, body weight, body temperature, heart rate and respiratory rate), repeated measurement analysis of covariance (SAS MIXED procedure RMANCOVA) was used to evaluate a model including treatment, time, sex, treatment by sex interaction, treatment by time interaction, and treatment by time by sex three-way interaction as fixed effects. In addition, baseline values were included as a covariate and remained in the model regardless of its significance. Baseline values were defined as the values prior to and nearest to the first dosing. The covariance structures for repeated measures analysis of covariance (RMANCOVA) were selected from compound symmetry (CS) and compound symmetry heterogeneous variances (CSH), since only two post baseline measurements were collected in this study. The Kenward-Roger approximation was used to calculate denominator degrees of freedom for statistical tests. The minimum Akaike Information Criterion was used to select the covariance structure.
# In Table 6 below the percent of samples in each treatment group that were above the upper reference range limit of 12 seconds is listed for Days 4 and 8.
# [3] = 1X, 30 mg/kg IV every 8 hours, Day 4
# [4] = 1X, 30 mg/kg IV every 8 hours, Day 8
# [5] = 2X, 60 mg/kg IV every 8 hours, Day 4
# [6] = 2X, 60 mg/kg IV every 8 hours, Day 8
# [7] = 3X, 90 mg/kg IV every 8 hours, Day 4
# [8] = 3X, 90 mg/kg IV every 8 hours, Day 8
# [9] = 3X, 90 mg/kg IV every 8 hours, Day 8, only 7 samples
# [10] = 30, 60, 90 mg/kg IV every 8 hours for 9 days vs placebo
smiles,measurement,setting,value
"Cc1c(N(C)CS(=O)(=O)O)c(=O)n(-c2ccccc2)n1C [dipyrone, [(2,3-dihydro-1,5-dimethyl-3-oxo-2-phenyl-1H-pyrazol-4-yl)methylamino] methanesulfonic acid]",Mean (standard deviation) temperature,"[1]; Phase 1, hour 4",100.0 ° F.
same,Mean (standard deviation) temperature,"[1]; Phase 1, hour 6",100.8 ° F.
same,Mean (standard deviation) temperature,"[1]; Phase 2 (crossover), hour 4",100.4 ° F.
same,Mean (standard deviation) temperature,"[1]; Phase 2 (crossover), hour 6",100.8 ° F.
same,Rectal temperature compared to controls,"[1]; 30 mg/kg IV, both phases, Hour 4, p<0.0001",significantly lowered rectal temperatures
same,Percent of samples with PT >12 sec,[2]; [3],100%
same,Percent of samples with PT >14 sec,[2]; [3],25%
same,Prothrombin Time Day 4 Range,[2]; [3],12.6 to 14.6 s
same,Range of PT values >14 sec,[2]; [3],14.1 to 14.6 s
same,Percent of samples with PT >12 sec,[2]; [4],100%
same,Percent of samples with PT >14 sec,[2]; [4],13%
same,Prothrombin Time Day 8 Range,[2]; [4],12.3 to 15.2 s
same,Range of PT values >14 sec,[2]; [4],(15.2) sec
same,Prothrombin Time LS Means,"[2]; 1X, 30 mg/kg IV every 8 hours",13.374 s and 13.374 ± 0.4062 s
same,Percent of samples with PT >12 sec,[2]; [5],100%
same,Percent of samples with PT >14 sec,[2]; [5],13%
same,Prothrombin Time Day 4 Range,[2]; [5],12.7 to 15.8 s
same,Range of PT values >14 sec,[2]; [5],15.8 s
same,Percent of samples with PT >12 sec,[2]; [6],100%
same,Percent of samples with PT >14 sec,[2]; [6],50%
same,"Prolongation of PT observed, number of horses",[2]; [6],1
same,Prothrombin Time Day 8 Range,[2]; [6],12.8 to 21.6 s
same,Range of PT values >14 sec,[2]; [6],(14.7-21.6) sec
same,Prothrombin Time LS Means,"[2]; 2X, 60 mg/kg IV every 8 hours",14.524 s and 14.524 ± 0.4064 s
same,Percent of samples with PT >12 sec,[2]; [7],100%
same,Percent of samples with PT >14 sec,[2]; [7],75%
same,Prothrombin Time Day 4 Range,[2]; [7],13.4 to 15.9 s
same,Range of PT values >14 sec,[2]; [7],14.6 to 15.9 s
same,"Prolongation of PT observed, number of horses",[2]; [8],1
same,Prothrombin Time Day 8 Range,[2]; [8],12.7 to 21.9 s
same,Range of PT values >14 sec,[2]; [8],(14.3-21.9) sec
same,Percent of samples with PT >12 sec,[2]; [9],100%^4
same,Percent of samples with PT >14 sec,[2]; [9],71%^4
same,Prothrombin Time LS Means,"[2]; 3X, 90 mg/kg IV every 8 hours",14.946 s and 14.946 ± 0.4396 s
same,Activated partial thromboplastin time (APTT) or fibrinogen,[2]; [10],no statistically significant differences
same,Effect on prothrombin time (PT),[2]; [10],statistically significant main treatment effect of prolongation of prothrombin time (PT)
